Test results published in US20210393538A1, “SILICA-BASED DRUG NANOCAPSULES” (priority 2018, published 2021).
Counter-ions that a name gives are not always drawn.

What was measured:
[1] = system: U87MG tumors; assay: In vivo therapy study; set-up: species or system nude mice
Experimental: Small animal models. For imaging and therapy studies, a U87MG subcutaneous mouse model was used. The animal model was established by subcutaneously inoculating 1 million U87MG cells onto the right hind leg or the right flank (for PET imaging only) of a 5-6 week old athymic female nude mice (Harlan). For toxicity studies, normal 5-6 week old balb/c mice (Envigo laboratories). All the animal studied were performed according to a protocol approved by the Institutional Animal Care and Use Committee (IACUC) of University of Georgia.
In vivo therapy study. Treatments started when tumor size reached 100-150 mm^3. 25 mice were randomly divided into 5 groups and were i.v. injected with PBS, free Dox, DSN-52 in PBS, MF cells, and DSN-MF cells on Day 0. Dox, DSN-52, and DSN-MF were injected at 3 mg Dox kg^−1, and 4 million cells were injected into the mice in MF and DSN-MF groups. The body weight and tumor volume of each mouse were measured every other day for 2 weeks. The tumor volume was calculated by the following equation: tumor volume=0.5×length×(width)^2, where length≥width. Mice were euthanized once the tumor volume was above 1,700 mm^3.

[2] = system: RAW264.7 cells; assay: Macrophage viability (MTT, Live/Dead Calcein AM/EthD-III); assay type: cell-based; settings: Mus musculus, RAW264.7 cells incubated 24 h
Experimental: In vitro cellular loading studies. RAW264.7 (murine macrophages) and U87MG (human glioblastoma) were purchased from ATCC. RAW264.7 cells were cultured in RPMI1640 medium (Corning, USA) supplemented with 10% FBS (Corning, USA) and 1% penicillin-streptomycin (MediaTech, USA). During the nanoparticle loading stage, FBS-free RPMI1640 medium was used for culturing. U87MG cells were grown in DMEM medium (Corning, USA) supplemented with 10% FBS, 1% non-essential amino acids, and 1% penicillin-streptomycin. These two cell lines were incubated under 37° C. and 5% CO2 in a humid chamber. […] To determine the amount of Dox loaded into cells, DSN-laden cells were counted and then lysed by sonication in PBS (pH 5.0). The amounts of released Dox was measured by spectroscopic analysis. The Dox content on a per cell basis was calculated compared with macrophages without nanoparticle loading. […] To evaluate the impact of loaded DSNs on macrophages, the viability change was first assessed at different time points post nanoparticle loading by 3-(4,5-dimethythiazon-2-yl)-2,5-diphenyl tetrazolium bromide (MTT) assay or Live/Dead Cytotoxicity assay and the results were compared with normal macrophages. […]

[3] = Toxicity studies; assay type: in vivo, balb/c mice
Experimental: Small animal models. For imaging and therapy studies, a U87MG subcutaneous mouse model was used. […] For toxicity studies, normal 5-6 week old balb/c mice (Envigo laboratories). All the animal studied were performed according to a protocol approved by the Institutional Animal Care and Use Committee (IACUC) of University of Georgia. Toxicity studies. Fifteen normal balb/c mice were randomly divided into 5 groups and received regimens specified in the in vivo therapy study section. The body weight and anal temperature of each mouse were measured daily at the same time (starting from 6 days before injection through Day 6). On Day 7, all mice were euthanized and the whole blood was collected. Part of the blood samples were used for a complete blood count (CBC) test. […] All tests were conducted by following the vendors' protocols. CRP and TNF-α kits were purchased from RayBiotech, ALT (MAK055) and AST (MAK052) kits from Sigma-Aldrich, and BUN from Arbor Assays. Each assay was repeated at least twice.

COc1cccc2c1C(=O)c1c(O)c3c(c(O)c1C2=O)C[C@@](O)(C(=O)CO)C[C@@H]3O[C@H]1C[C@H](N)[C@H](O)[C@H](C)O1 [Dox, doxorubicin hydrochloride salt]
tumor growth inhibition (TGI) rate ([1]; Day 14, relative to the PBS group): 24.84% | median survival ([1]; one i.v. dose on Day 0): 16 days | average tumor volume on Day 14 ([1]; one i.v. dose on Day 0, 3 mg Dox kg^−1 and/or ˜4×10^6 cells per mouse): 1328.6 mm^3 | IC50 [2]: 1.5 µg/mL | Bands ([3]; CBC, Day 7): 12% | HCT ([3]; CBC, Day 7): 48.9% | HGB ([3]; CBC, Day 7): 44.0 g/dL | Lymphs ([3]; CBC, Day 7): 82% | MCH ([3]; CBC, Day 7): 31.6 pg | MCHC ([3]; CBC, Day 7): 62 g/dL | MCV ([3]; CBC, Day 7): 15.4 fL | Monos ([3]; CBC, Day 7): 6% | RBC ([3]; CBC, Day 7): 1.39e+07 µL⁻¹ | Segs ([3]; CBC, Day 7): 0% | WBC ([3]; CBC, Day 7): 13490 µL⁻¹ | complete blood count (CBC) analysis, overall ([3]; Day 7): abnormalities | body weight change ([3]; normal balb/c mice, Day 2, hydrochloride salt): small degree of body weight loss
